Experiments:
[1] = system: native rat adipocytes; assay: Lipogenesis in native rat adipocytes; type: cell-based
Description: Adipocytes were isolated from epididymal fat pads dissected from freshly sacrificed male Long-Evans rats and incorporation of [6-^3H]-glucose into triglycerides in response to treatment with inositol glycans or insulin was measured as previously described (Chakraborty, N. and M. d'Alarcao, Bioorganic & Medicinal Chemistry 13 (2005) 6732-6741).

[2] = system: 3T3-L1 adipocytes; assay: Glycogen synthesis in 3T3-L1 adipocytes; type: cell-based, mouse; details: 100 μM
Description: (§1) 3T3-L1 fibroblasts were maintained in Dulbecco's modified Eagle's medium (DMEM) with 25 mM glucose plus 10% fetal bovine serum (FBS). Following 2 days at confluence, differentiation was initiated by the addition of DMEM containing 10% FBS, 167 nM insulin, […] dexamethasone, and 0.5 mM isobutylmethylxanthine. Three days later, the medium was replaced with DMEM plus 10% FBS and 167 nM insulin. After 2 more days, the medium was switched to DMEM plus 10% fetal bovine serum. Adipocytes were used 6-14 days after completion of the differentiation protocol, when >90% of the cells expressed the adipocyte phenotype. Prior to experiments, cells were washed two times with DMEM medium containing 5 mM glucose, 0.2% bovine serum albumin, 25 mM Hepes (pH 7.4), 100 units/ml penicillin, 100 units/ml streptomycin and 0.29 mg/ml glutamine, and were incubated in the same medium for 2 h. Glycogen and lipid synthesis were measured in 24-well dishes. […] The lipids were then extracted overnight with 5 ml of Betafluor (National Diagnostics), and glucose incorporation into lipid was measured by scintillation counting. 400 μl of the cell suspension was added to 600 μl of 50% KOH, and glycogen was precipitated and radioactivity was counted by a liquid scintillation counter

[3] = system: 3T3-L1 adipocytes; assay: Lipogenesis in 3T3-L1 adipocytes; type: cell-based, mouse; details: 100 μM
Description: as §1

[4] = system: human normal cultured cells; assay: Proliferation of human normal cultured cells; type: cell-based; details: 1-100 μM, data not shown
Description: Human primary culture cells, dermal fibroblasts, epidermal keratinocytes and umbilical vein endothelial cells were purchased from Cell Applications (San Diego, Calif., USA) and cultured according to the manufacturer's instructions.
(§2) Cell proliferation assays were performed with the CellTiter 96 AQueous One Solution Cell Proliferation Assay kit according to the manufacturer's instructions (Promega, Madison, Wis., USA). Briefly, 5×10^3 cells/well in medium were placed onto 96-well plates. IGs were added to cellular cultures at final concentrations of 0, 1, 10, and 100 μM. Cultures were incubated for 3 days or 7 days and then added to 20 μL/well of CellTiter 96 AQueous One Solution Reagent, which contains a tetrazolium compound, 3-(4,5-dimethylthiazol-2-yl)-5-(3-carboxymethoxyphenyl)-2-(4-sulfophenyl)-2H-tetrazolium, an inner salt; MTS was added to the culture medium. After incubating the plate for 1 h in a CO2 incubator, absorbance at 490 nm was recorded with a 96-well plate reader.

[5] = system: Panc-1 cells; assay: Cell proliferation / cell death assay, Panc-1; type: cell-based, human; details: Panc-1, after 3 days (72 hours)
Description: (§3) Human pancreatic cancer cell lines (Panc-1, MiaPaca2, BXPC3, Aspc 1), human hepatoma cell line (HuH7), human gastric cancer cell lines (AGS, MKN45), human colon cancer cell line (CoCM-1), human mammary cancer cell line (MCF-7), human neuroblastoma (SH-SY5Y), human prostate cancer cells (PC3), and murine Ehrlich ascites cancer cells and mouse 3T3-L1 fibroblasts were obtained from American Type Culture Collection (Rockville, Md., USA). The cancer cells were cultured in RPMI 1640 containing 10% fetal calf serum. Cultures were maintained at 37° C. in a humidified atmosphere of 5% CO2.
as §2, with “Cultures were incubated for 3 days or 7 days and then added to 20 μL/well” left out

[6] = system: human umbilical vein endothelial cells (HUVEC); assay: Cell death of human umbilical vein endothelial cells; type: cell-based; details: in 1 hour, with IG-1
[7] = system: human neuroblastoma (SH-SY5Y); assay: Cell proliferation / cell death assay, SH-SY5Y; type: cell-based; details: in 24 hours after treatment
Description: as §3
as §2, with “Cultures were incubated for 3 days or 7 days and then added to 20 μL/well” left out

[8] = system: human prostate cancer cells (PC3); assay: Cell proliferation / cell death assay, PC3; type: cell-based; details: PC3, in 24 hours after treatment
Description: as §3
as §2, with “Cultures were incubated for 3 days or 7 days and then added to 20 μL/well” left out

[9] = system: human hepatoma (HuH7); assay: Cell proliferation / cell death assay, HuH7; type: cell-based; details: HuH7, in 24 hours after treatment
Description: as §3
as §2, with “Cultures were incubated for 3 days or 7 days and then added to 20 μL/well” left out

For `CCCCCCCCCCCCCCCC(=O)O[C@@H]1C(O)C(O[C@H]2OC(CO)[C@@H](O)[C@H](O)C2N)[C@@H](O)[C@@H](O)C1O` (stereo partly drawn) [IG15, 2-Amino-2-deoxy-α-D-glucopyranosyl-(1→3)-1-palmitoyl-D-myo-inositol], the stimulation of lipogenesis ([1]; native rat adipocytes, 40 μM) was “little or no lipogenesis”, the glycogen synthesis [2] was “stimulates” and the lipogenesis [3] was “stimulates”. For the same compound, the “proliferation of human normal cultured cells” value (“proliferation” for short) [4] was “did not affect the proliferation” and the cell death [5] was “induced cancer cell death”.

In the case of `CCCCCCCCCCCCCCCC(=O)O[C@H]1[C@@H](O)[C@H](O)[C@@H](O)[C@H](O)[C@H]1O[C@H]1O[C@H](CO)[C@@H](O)[C@H](O)[C@H]1N` [IG14, 2-Amino-2-deoxy-α-D-glucopyranosyl-(1→3)-2-palmitoyl-D-myo-inositol], the stimulation of lipogenesis ([1]; native rat adipocytes, 40 μM) is reported as “little or no lipogenesis”, the “proliferation” value [4] is reported as “did not affect the proliferation” and the cell death [5] is reported as “induced cancer cell death”.

With `CCCCC/C=C\C/C=C\C/C=C\C/C=C\CCCC(=O)O[C@H](COCCCCCCCCCCCCCCCCCC)COP(=O)(O)O` [AAPA2, 1-0-alkyl (18:0)-2-0-acyl-(20:4)-sn-glycerol-phosphate] the “effect on rapid cell death of HUVEC induced by IG-1” value [6] was “inhibits this rapid cell death”.

For `CCCCCCCCCCCCCCCC(=O)OC1[C@H](O)C(O)C(O)[C@H](O)[C@@H]1O[C@H]1OC(CO)[C@@H](O)[C@H](O)C1N` (stereo partly drawn) [IG13, 2-Amino-2-deoxy-α-D-glucopyranosyl-(1→6)-1-palmitoyl-D-myo-inositol], the stimulation of lipogenesis ([1]; native rat adipocytes, 40 μM) was “little or no lipogenesis”, the “proliferation” value [4] was “did not affect the proliferation” and the cell death [5] was “induced cancer cell death”.

`CCCCCCCCCCCCCCCC(=O)O[C@@H]1C(O)C(O)[C@H](O)[C@H](O[C@H]2OC(CO)[C@@H](O)[C@H](O)C2N)C1OP(=O)(O)O` (stereo partly drawn) [IG2, 2-Amino-2-deoxy-α-D-glucopyranosyl-(1→6)-2-palmitoyl-D-myo-inositol-1-phosphate] was tested, and the cancer cell death [7] was “induced cancer cell death”, the EC50 ([1]; Adipocyte, rat isolated adipocytes, fit to receptor binding model, read-out: EC50 value for stimulation of lipogenesis) was 2.5 µM and the Emax ([1]; Adipocyte, rat isolated adipocytes, stimulation of lipogenesis, read-out: Amax (maximal effect)) was 37%. For the same compound, the stimulation of lipogenesis ([1]; rat isolated adipocytes, concentration series) was “stimulated lipogenesis”, the “proliferation” value [4] was “no effect on the proliferation” and the cancer cell death [8] was “induced cancer cell death”. The cancer cell death [9] was “induced cancer cell death”.
